The target of test [1] is T1, HiBit-BRG1 (Homo sapiens, UniProt P51532).
T1 construct: expressed in transfected cells
As to the kind of experiment: HiBit-BRG1 cell-based degradation assay (Nano-Glo HiBiT Lytic Detection). Conditions: HeLa cells expressing HiBit-BRG1 and LgBit, 24 h; for DC50: read-out: BRG1 HiBit Degradation IC50; for Dmax: read-out: BRG1 HiBit Degradation Maximum (%). The essentials:
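Seed 5000 HeLa HiBit-BRG1/LgBit cells per well; treat 24 h; equilibrate 15 min at room temperature; add Nano-Glo HiBiT lytic reagent, shake 10 min, read luminescence. Percent degradation is scaled between DMSO and 2 μM reference degrader wells.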

Test [2] concerns the target T2, HiBiT-BRM (Homo sapiens, UniProt P51531).
T2 construct: expressed in transfected cells
As to the kind of experiment: HiBiT-BRM cell-based degradation assay (Nano-Glo HiBiT Lytic Detection). The following applies: HeLa cells expressing HiBiT-BRM, 24 h; for DC50: read-out: BRM HiBit Degradation IC50. An outline of the steps:
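HeLa cells stably expressing HiBiT-tagged BRM were treated for 24 h, then lysed with LgBiT-containing Nano-Glo reagent and luminescence read. % degradation scaled between DMSO (high control) and 2 μM reference BRM/BRG1 degrader (low control).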
On the technique in general: HiBiT is a short tag that completes a luciferase, so light tracks the accessible tagged protein.

Structures can show the parent of a compound that is named as a salt.

T1 sequence (P51532 whole entry): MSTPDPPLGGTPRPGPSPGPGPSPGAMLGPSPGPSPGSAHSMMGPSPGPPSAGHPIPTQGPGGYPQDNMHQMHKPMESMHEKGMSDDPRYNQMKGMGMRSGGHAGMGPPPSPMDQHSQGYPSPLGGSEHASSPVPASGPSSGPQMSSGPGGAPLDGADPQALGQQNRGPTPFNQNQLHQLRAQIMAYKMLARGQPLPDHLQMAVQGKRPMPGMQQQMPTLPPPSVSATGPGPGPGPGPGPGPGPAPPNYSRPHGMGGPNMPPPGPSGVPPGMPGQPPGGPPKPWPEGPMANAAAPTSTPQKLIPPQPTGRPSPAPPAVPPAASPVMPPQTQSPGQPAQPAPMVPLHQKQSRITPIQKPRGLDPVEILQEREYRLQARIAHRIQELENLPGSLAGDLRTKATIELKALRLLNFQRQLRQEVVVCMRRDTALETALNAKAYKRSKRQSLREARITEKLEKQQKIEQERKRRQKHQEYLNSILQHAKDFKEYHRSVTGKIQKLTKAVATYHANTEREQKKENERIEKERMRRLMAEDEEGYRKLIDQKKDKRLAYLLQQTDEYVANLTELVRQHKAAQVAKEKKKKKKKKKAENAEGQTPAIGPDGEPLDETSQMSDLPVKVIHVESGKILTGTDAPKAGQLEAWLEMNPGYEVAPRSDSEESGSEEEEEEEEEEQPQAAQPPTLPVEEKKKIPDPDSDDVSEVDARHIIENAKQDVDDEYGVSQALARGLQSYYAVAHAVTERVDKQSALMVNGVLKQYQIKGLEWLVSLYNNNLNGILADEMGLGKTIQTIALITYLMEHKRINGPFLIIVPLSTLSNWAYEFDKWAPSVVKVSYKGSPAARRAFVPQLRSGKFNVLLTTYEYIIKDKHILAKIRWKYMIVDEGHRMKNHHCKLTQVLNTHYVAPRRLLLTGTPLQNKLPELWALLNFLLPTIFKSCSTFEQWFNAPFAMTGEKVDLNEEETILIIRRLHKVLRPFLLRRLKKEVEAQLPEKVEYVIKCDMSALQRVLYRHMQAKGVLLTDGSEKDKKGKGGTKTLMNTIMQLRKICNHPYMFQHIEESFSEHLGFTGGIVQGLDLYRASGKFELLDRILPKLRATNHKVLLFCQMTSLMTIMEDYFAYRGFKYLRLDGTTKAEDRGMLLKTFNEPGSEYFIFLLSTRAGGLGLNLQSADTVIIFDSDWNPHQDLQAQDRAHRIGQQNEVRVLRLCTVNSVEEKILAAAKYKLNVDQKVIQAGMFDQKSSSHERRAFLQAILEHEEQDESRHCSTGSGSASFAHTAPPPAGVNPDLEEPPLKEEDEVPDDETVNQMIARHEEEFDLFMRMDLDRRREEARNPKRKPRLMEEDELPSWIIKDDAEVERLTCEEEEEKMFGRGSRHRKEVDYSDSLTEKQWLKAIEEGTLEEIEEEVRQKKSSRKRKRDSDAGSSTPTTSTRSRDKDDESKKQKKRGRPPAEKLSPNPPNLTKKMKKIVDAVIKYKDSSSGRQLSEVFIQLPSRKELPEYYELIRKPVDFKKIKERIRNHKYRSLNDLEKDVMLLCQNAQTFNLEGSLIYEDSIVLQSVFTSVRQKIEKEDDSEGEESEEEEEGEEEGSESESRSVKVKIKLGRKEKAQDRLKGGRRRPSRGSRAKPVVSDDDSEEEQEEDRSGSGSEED
T2 sequence (P51531 whole entry): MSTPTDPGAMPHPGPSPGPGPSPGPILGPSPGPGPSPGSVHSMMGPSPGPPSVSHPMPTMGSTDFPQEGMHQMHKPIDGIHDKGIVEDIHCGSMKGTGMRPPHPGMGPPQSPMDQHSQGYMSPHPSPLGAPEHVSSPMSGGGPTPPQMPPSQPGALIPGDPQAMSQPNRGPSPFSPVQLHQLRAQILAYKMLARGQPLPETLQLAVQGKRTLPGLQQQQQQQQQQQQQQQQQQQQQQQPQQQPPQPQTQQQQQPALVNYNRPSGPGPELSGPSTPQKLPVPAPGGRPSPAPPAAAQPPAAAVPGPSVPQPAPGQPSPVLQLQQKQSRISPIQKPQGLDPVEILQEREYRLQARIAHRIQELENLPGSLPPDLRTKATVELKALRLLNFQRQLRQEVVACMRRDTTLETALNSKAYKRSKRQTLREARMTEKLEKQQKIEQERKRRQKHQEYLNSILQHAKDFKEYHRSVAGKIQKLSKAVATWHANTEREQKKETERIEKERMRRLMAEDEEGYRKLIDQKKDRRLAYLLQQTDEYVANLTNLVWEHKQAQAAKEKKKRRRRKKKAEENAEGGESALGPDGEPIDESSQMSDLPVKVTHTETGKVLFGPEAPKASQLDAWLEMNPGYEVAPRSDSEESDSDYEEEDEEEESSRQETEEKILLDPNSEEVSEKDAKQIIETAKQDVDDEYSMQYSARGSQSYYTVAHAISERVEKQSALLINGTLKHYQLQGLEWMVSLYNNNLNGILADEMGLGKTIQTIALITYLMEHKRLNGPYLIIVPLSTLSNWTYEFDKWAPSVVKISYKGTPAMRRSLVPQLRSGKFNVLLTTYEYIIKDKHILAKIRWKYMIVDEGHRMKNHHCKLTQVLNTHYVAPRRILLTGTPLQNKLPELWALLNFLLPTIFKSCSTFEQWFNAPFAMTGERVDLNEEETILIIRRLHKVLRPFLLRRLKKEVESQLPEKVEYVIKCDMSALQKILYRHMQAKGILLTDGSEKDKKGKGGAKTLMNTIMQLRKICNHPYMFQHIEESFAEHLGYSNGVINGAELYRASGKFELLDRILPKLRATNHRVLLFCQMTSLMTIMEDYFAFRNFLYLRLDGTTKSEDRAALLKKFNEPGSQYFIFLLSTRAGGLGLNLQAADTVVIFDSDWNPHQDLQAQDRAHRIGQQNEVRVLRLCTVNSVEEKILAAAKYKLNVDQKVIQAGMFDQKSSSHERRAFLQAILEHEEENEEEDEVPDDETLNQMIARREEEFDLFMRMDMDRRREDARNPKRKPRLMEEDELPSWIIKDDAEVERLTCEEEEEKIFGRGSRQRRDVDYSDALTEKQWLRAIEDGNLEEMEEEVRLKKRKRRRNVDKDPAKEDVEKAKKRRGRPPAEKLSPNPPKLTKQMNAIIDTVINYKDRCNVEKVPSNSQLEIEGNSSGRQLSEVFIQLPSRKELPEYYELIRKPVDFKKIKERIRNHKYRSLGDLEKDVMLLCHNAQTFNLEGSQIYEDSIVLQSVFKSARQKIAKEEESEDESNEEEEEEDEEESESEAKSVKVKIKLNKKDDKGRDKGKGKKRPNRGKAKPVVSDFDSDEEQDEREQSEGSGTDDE

For `Cc1nc2cccc(NCCCCCCNC(=O)c3ccc(CCOc4cc(-c5ccccc5O)nnc4N)cc3)c2c(=O)n1C1CCC(=O)NC1=O` (centres unmarked) [Compound 52, 4-(2-[[3-amino-6-(2-hydroxyphenyl)pyridazin-4-yl]oxy]ethyl)-N-(6-[[3-(2,6-dioxopiperidin-3-yl)-2-methyl-4-oxoquinazolin-5-yl]amino]hexyl)benzamide], in test [1], the DC50 is more than 1000 nM and the Dmax is less than 50%. In addition, in test [2], the “BRM HiBit Degradation Maximum (%)” value is listed as “C (“C” indicates maximum degradation <50%)” and the DC50 is more than 1000 nM.
For `Nc1nnc(-c2ccccc2O)cc1OCCc1ccc(CNCCCCOc2cccc3c2C(=O)N(C2CCC(=O)NC2=O)C3=O)cc1` (centres unmarked) [Compound 121, 4-(4-((4-(2-((3-amino-6-(2-hydroxyphenyl)pyridazin-4-yl)oxy)ethyl)benzyl)amino)butoxy)-2-(2,6-dioxopiperidin-3-yl)isoindoline-1,3-dione], in test [1], the DC50 was more than 1000 nM and the Dmax was less than 50%. In test [2], the “BRM HiBit Degradation Maximum (%)” value is reported as “C (“C” indicates maximum degradation <50%)” and the DC50 is more than 1000 nM.
As for `Cc1ncsc1-c1ccc(CNC(=O)[C@@H]2C[C@@H](O)CN2C(=O)[C@@H](NC(=O)CCN2C[C@H]3CN(CCC(=O)NCc4ccc(CCOc5cc(-c6ccccc6O)nnc5N)cc4)C[C@H]3C2)C(C)(C)C)cc1` [Compound 235, (2S,4R)-1-((2S)-2-(3-(5-(3-((4-(2-((3-amino-6-(2-hydroxyphenyl)pyridazin-4-yl)oxy)ethyl)benzyl)amino)-3-oxopropyl)hexahydropyrrolo[3,4-c]pyrrol-2(1H)-yl)propanamido)-3,3-dimethylbutanoyl)-4-hydroxy-N-(4-(4-methylthiazol-5-yl)benzyl)pyrrolidine-2-carboxamide], in test [1], the DC50 is more than 1000 nM and the Dmax is less than 50%. In addition, in test [2], the “BRM HiBit Degradation Maximum (%)” value is “C (“C” indicates maximum degradation <50%)” and the DC50 was more than 1000 nM.
As to `Cc1ncsc1-c1ccc([C@H](C)NC(=O)[C@@H]2C[C@@H](O)CN2C(=O)[C@@H](c2cc(OCCN3CC4CN(C(=O)c5ccc(CCOc6cc(-c7ccccc7O)nnc6N)cc5)C4C3)no2)C(C)C)cc1` (stereo partly drawn) [Compound 240, (2S,4R)-1-((2R)-2-(3-(2-(6-(4-(2-((3-amino-6-(2-hydroxyphenyl)pyridazin-4-yl)oxy)ethyl)benzoyl)-3,6-diazabicyclo[3.2.0]heptan-3-yl)ethoxy)isoxazol-5-yl)-3-methylbutanoyl)-4-hydroxy-N-((S)-1-(4-(4-methylthiazol-5-yl)phenyl)ethyl)pyrrolidine-2-carboxamide], in test [1], the DC50 is more than 100 nM and the Dmax is more than 75%. In test [2], the “BRM HiBit Degradation Maximum (%)” value is on record as “A (“A” indicates maximum degradation ≥75%)” and the DC50 was more than 100 nM.
In the case of `Nc1nnc(-c2cc(F)cc(Cl)c2O)cc1OCCc1ccc(CNCCCCCOc2cccc3c2C(=O)N(C2CCC(=O)NC2=O)C3=O)cc1` (centres unmarked) [Compound 119, 4-((5-((4-(2-((3-amino-6-(3-chloro-5-fluoro-2-hydroxyphenyl)pyridazin-4-yl)oxy)ethyl)benzyl)amino)pentyl)oxy)-2-(2,6-dioxopiperidin-3-yl)isoindoline-1,3-dione; formic acid salt], in test [1], the DC50 was more than 1000 nM and the Dmax is more than 50%. Further, in test [2], the “BRM HiBit Degradation Maximum (%)” value is reported as “C (“C” indicates maximum degradation <50%)” and the DC50 is more than 1000 nM.
On to `Cc1ncsc1-c1ccc(CNC(=O)[C@@H]2C[C@@H](O)CN2C(=O)[C@@H](NC(=O)CCN2CCC(O)(C(=O)NCc3ccc(CCOc4cc(-c5ccccc5O)nnc4N)cc3)CC2)C(C)(C)C)cc1` [Compound 185, N-[[4-(2-[[3-amino-6-(2-hydroxyphenyl)pyridazin-4-yl]oxy]ethyl)phenyl]methyl]-4-hydroxy-1-(2-[[(2S)-1-[(2S,4R)-4-hydroxy-2-([[4-(4-methyl-1,3-thiazol-5-yl)phenyl]methyl]carbamoyl)pyrrolidin-1-yl]-3,3-dimethyl-1-oxobutan-2-yl]carbamoyl]ethyl)piperidine-4-carboxamide], for which, in test [1], the DC50 is more than 1000 nM and the Dmax was less than 50%. Further, in test [2], the “BRM HiBit Degradation Maximum (%)” value is “C (“C” indicates maximum degradation <50%)” and the DC50 was more than 1000 nM.
In the case of `Cc1ncsc1-c1ccc([C@H](C)NC(=O)[C@@H]2C[C@@H](O)CN2C(=O)[C@@H](c2cc(OCCN3CCC(CC(=O)NCc4ccc(CCOc5cc(-c6ccccc6O)nnc5N)cc4)CC3)no2)C(C)C)cc1` [Compound 177, (2S,4R)-1-((R)-2-(3-(2-(4-(2-((4-(2-((3-amino-6-(2-hydroxyphenyl)pyridazin-4-yl)oxy)ethyl)benzyl)amino)-2-oxoethyl)piperidin-1-yl)ethoxy)isoxazol-5-yl)-3-methylbutanoyl)-4-hydroxy-N-((S)-1-(4-(4-methylthiazol-5-yl)phenyl)ethyl)pyrrolidine-2-carboxamide], in test [1], the DC50 was more than 1000 nM and the Dmax was more than 75%. Further, in test [2], the “BRM HiBit Degradation Maximum (%)” value is listed as “A (“A” indicates maximum degradation ≥75%)” and the DC50 was more than 100 nM.
Consider `Cc1ncsc1-c1ccc(CNC(=O)[C@@H]2C[C@@H](O)CN2C(=O)[C@@H](NC(=O)COCCOCCOCCOCC(=O)NCc2ccc(CCOc3cc(-c4ccccc4O)nnc3N)cc2)C(C)(C)C)cc1` [Compound 39], for which, in test [1], the DC50 is more than 1000 nM and the Dmax is less than 50%. Moreover, in test [2], the “BRM HiBit Degradation Maximum (%)” value is “C (“C” indicates maximum degradation <50%)” and the DC50 was more than 1000 nM.
On to `Nc1nnc(-c2ccccc2O)cc1N1CCN(CC(=O)NCCCCCNc2ccc3c(c2)C(=O)N(C2CCC(=O)NC2=O)C3=O)CC1` (centres unmarked) [Compound 87, 2-[4-[3-amino-6-(2-hydroxyphenyl)pyridazin-4-yl]piperazin-1-yl]-N-(5-[[2-(2,6-dioxopiperidin-3-yl)-1,3-dioxo-2,3-dihydro-1H-isoindol-5-yl]amino]pentyl)acetamide; formic acid], for which, in test [1], the DC50 was more than 1000 nM and the Dmax was more than 50%. Also, in test [2], the “BRM HiBit Degradation Maximum (%)” value is reported as “B (“B” indicates maximum degradation ≥50%)” and the DC50 was more than 1000 nM.
On to `Cc1ncsc1-c1ccc([C@H](C)NC(=O)[C@@H]2C[C@@H](O)CN2C(=O)[C@@H](NC(=O)CCCCCCCCCCCCCCNC(=O)c2ccc(CCOc3cc(-c4ccccc4O)nnc3N)cc2)C(C)(C)C)cc1` [Compound 254, (2S,4R)-1-((S)-2-(15-(4-(2-((3-amino-6-(2-hydroxyphenyl)pyridazin-4-yl)oxy)ethyl)benzamido)pentadecanamido)-3,3-dimethylbutanoyl)-4-hydroxy-N-((S)-1-(4-(4-methylthiazol-5-yl)phenyl)ethyl)pyrrolidine-2-carboxamide], for which, in test [1], the DC50 is more than 1000 nM and the Dmax is less than 50%. Further, in test [2], the “BRM HiBit Degradation Maximum (%)” value is “B (“B” indicates maximum degradation ≥50%)” and the DC50 was more than 10 nM.
Consider `Nc1nnc(-c2ccccc2O)cc1OCCc1ccc(CNC(=O)CCCCNc2ccc3c(c2)CN(C2CCC(=O)NC2=O)C3=O)cc1` (centres unmarked) [Compound 137, N-(4-(2-((3-amino-6-(2-hydroxyphenyl)pyridazin-4-yl)oxy)ethyl)benzyl)-5-((2-(2,6-dioxopiperidin-3-yl)-1-oxoisoindolin-5-yl)amino)pentanamide], for which, in test [1], the DC50 was more than 1000 nM and the Dmax was less than 50%. In addition, in test [2], the “BRM HiBit Degradation Maximum (%)” value is “C (“C” indicates maximum degradation <50%)” and the DC50 was more than 1000 nM.
For `Nc1nnc(-c2ccccc2O)cc1OCCc1ccc(CNCCCC2CN(c3cccc4c3C(=O)N(C3CCC(=O)NC3=O)C4=O)C2)cc1` (centres unmarked) [Compound 114, 4-(3-(3-((4-(2-((3-amino-6-(2-hydroxyphenyl)pyridazin-4-yl)oxy)ethyl)benzyl)amino)propyl)azetidin-1-yl)-2-(2,6-dioxopiperidin-3-yl)isoindoline-1,3-dione], in test [1], the DC50 is more than 1000 nM and the Dmax is more than 50%. In addition, in test [2], the “BRM HiBit Degradation Maximum (%)” value is reported as “B (“B” indicates maximum degradation ≥50%)” and the DC50 was more than 10 nM.
Consider `Cc1ncsc1-c1ccc(CNC(=O)[C@H]2C[C@H](O)CN2C(=O)[C@H](NC(=O)CCCCCNC(=O)CN2CCN(c3cc(-c4ccccc4O)nnc3N)CC2)C(C)(C)C)cc1` (stereo in doubt) [Compound 101, (2R,4S)-1-[(2R)-2-[6-(2-[4-[3-amino-6-(2-hydroxyphenyl)pyridazin-4-yl]piperazin-1-yl]acetamido)hexanamido]-3,3-dimethylbutanoyl]-4-hydroxy-N-[[4-(4-methyl-1,3-thiazol-5-yl)phenyl]methyl]pyrrolidine-2-carboxamide], for which, in test [1], the DC50 is more than 1000 nM and the Dmax is less than 50%. In addition, in test [2], the “BRM HiBit Degradation Maximum (%)” value is “B (“B” indicates maximum degradation ≥50%)” and the DC50 was more than 1000 nM.
`Cc1ncsc1-c1ccc(CNC(=O)[C@@H]2C[C@@H](O)CN2C(=O)[C@@H](NC(=O)CCN2CCC(C3CN(C(=O)c4ccc(CCOc5cc(-c6ccccc6O)nnc5N)cc4)C3)CC2)C(C)(C)C)cc1` [Compound 204, (2S,4R)-1-((S)-2-(3-(4-(1-(4-(2-((3-amino-6-(2-hydroxyphenyl)pyridazin-4-yl)oxy)ethyl)benzoyl)azetidin-3-yl)piperidin-1-yl)propanamido)-3,3-dimethylbutanoyl)-4-hydroxy-N-(4-(4-methylthiazol-5-yl)benzyl)pyrrolidine-2-carboxamide]: in test [1], the DC50 is more than 1000 nM and the Dmax is less than 50%. In test [2], the “BRM HiBit Degradation Maximum (%)” value is listed as “B (“B” indicates maximum degradation ≥50%)” and the DC50 is more than 1000 nM.

(Values after patent US20230150974A1 (Foghorn Therapeutics Inc., priority 2020, published 2023).)
